According to patent US20260001928A1 (CORTERIA PHARMACEUTICALS, priority 2022, published 2026):
*1 amine or outer side, *2 acyl side, *3 side chain or, on linkers, in order; H or OH if unused. Where a SMILES comes first, the peptide text is derived from it. Side-chain parts run from the residue outwards. [ ]: non-standard residue; d: D form. The star is where a group is joined. C18 diacid = O=C(O)CCCCCCCCCCCCCCCCC(=O)*; C16 diacid = O=C(O)CCCCCCCCCCCCCCC(=O)*; γGlu = O=C(O)[C@H](CCC(=O)[*:2])N[*:1]; C12 diacid = O=C(O)CCCCCCCCCCC(=O)*; NMeI = CC[C@H](C)[C@H](NC)C(=O)O; Api = NC1(C(=O)O)CCNCC1; Dap = NC[C@H](N)C(=O)O; AEEA = NCCOCCOCC(=O)O; Aib = CC(C)(N)C(=O)O; Propionyl = CCC(=O)*

Columns and labels:
human CRF2a receptor = target: T1, human CRF2a receptor (Homo sapiens, UniProt Q13324); assay: Activity at human CRF2a receptor, cAMP functional assay in TeloHEAC cells; assay type: cell-based; settings: TeloHEAC cells stably expressing human CRF2a receptor, relative to urocortin 2 (100 nM = 100%)
T1 construct: expressed in transfected cells; host or cells: TeloHEAC cells
T1 sequence (Q13324 1-411): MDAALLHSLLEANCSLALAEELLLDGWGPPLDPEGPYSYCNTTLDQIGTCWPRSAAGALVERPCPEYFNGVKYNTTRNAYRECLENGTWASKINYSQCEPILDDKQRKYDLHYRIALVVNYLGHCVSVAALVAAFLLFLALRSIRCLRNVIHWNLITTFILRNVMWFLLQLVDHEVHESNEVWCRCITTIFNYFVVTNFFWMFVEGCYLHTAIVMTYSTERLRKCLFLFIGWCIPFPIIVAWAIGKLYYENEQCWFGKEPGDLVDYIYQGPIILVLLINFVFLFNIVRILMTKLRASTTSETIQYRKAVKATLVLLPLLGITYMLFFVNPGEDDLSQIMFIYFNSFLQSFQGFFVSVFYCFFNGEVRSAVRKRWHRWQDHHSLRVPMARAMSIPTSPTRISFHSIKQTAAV
In short: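 cAMP accumulation was measured by HTRF 665/620 nm ratio after 30 min at 37° C compound exposure (16 twofold dilutions) of CRF2a-expressing TeloHEAC cells, 10000/well, in HEPES-buffered HBSS plus IBMX. Activity was normalised to urocortin 2 at 100 nM (100%), and EC50 was the concentration giving half-maximal activation.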

CFR1R receptor = target: T2, CFR1R receptor (Homo sapiens, UniProt P34998); assay: Activity at anti-target CFR1R receptor, cAMP assay in CRF1R-overexpression CHO-K1 cells; assay type: cell-based; settings: 100% = Sauvagine at 100 nM; for EC50: cAMP
T2 construct: host or cells: CHO-K1 (clone 2)
T2 sequence (P34998 24-415): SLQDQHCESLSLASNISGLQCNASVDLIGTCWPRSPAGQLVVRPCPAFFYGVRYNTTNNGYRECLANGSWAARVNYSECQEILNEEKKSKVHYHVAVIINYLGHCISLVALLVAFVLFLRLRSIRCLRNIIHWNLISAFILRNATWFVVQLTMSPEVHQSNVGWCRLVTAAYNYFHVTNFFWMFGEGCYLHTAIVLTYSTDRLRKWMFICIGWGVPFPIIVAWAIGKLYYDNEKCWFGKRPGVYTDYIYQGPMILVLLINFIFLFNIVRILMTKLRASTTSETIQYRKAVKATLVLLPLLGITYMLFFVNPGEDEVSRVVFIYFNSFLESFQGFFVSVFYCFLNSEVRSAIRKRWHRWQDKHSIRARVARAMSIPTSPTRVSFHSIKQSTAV
In short: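 Clone 2; cryopreserved stocks (10% DMSO); 4000 cells/well final; 100% activation = Sauvagine 100 nM; otherwise as TeloHAEC protocol.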

With `CC[C@H](C)[C@H](NC)C(=O)N[C@H](C(=O)N[C@@H](CC(C)C)C(=O)N[C@@H](CO)C(=O)N[C@@H](CC(C)C)C(=O)N[C@@H](CC(=O)O)C(=O)N[C@@H](C(=O)N1CCC[C@H]1C(=O)N[C@H](C(=O)N[C@@H](CCCCN)C(=O)N[C@@H](CC(C)C)C(=O)N[C@@H](CCCCNC(=O)CC[C@H](NC(=O)CCCCCCCCCCCCCCCCC(=O)O)C(=O)O)C(=O)N[C@@H](CCCCN)C(=O)N[C@H](C(=O)N[C@@H](CC(C)C)C(=O)N[C@@H](CC(C)C)C(=O)N[C@@H](CCC(=O)O)C(=O)N[C@@H](CCC(N)=O)C(=O)N[C@@H](CCC(=O)O)C(=O)N[C@@H](CCCCN)C(=O)N[C@@H](CCC(N)=O)C(=O)N[C@@H](CCCCN)C(=O)N[C@@H](CCCCN)C(=O)N[C@@H](CCC(N)=O)C(=O)N[C@@H](CCCNC(=N)N)C(=O)N[C@@H](CCC(=O)O)C(=O)N[C@@H](CCC(N)=O)C(=O)N[C@@H](C)C(=O)N[C@@H](CCC(=O)O)C(=O)N[C@H](C(=O)N[C@@H](CC(N)=O)C(=O)N[C@@H](CN)C(=O)N[C@@H](CCC(N)=O)C(=O)N[C@H](C(=O)N[C@@H](CC(C)C)C(=O)N[C@@H](C)C(=O)N[C@@H](CCC(N)=O)C(=O)N[C@H](C(N)=O)C(C)C)[C@@H](C)CC)[C@@H](C)O)[C@@H](C)CC)[C@@H](C)CC)C(C)C)C(C)C` [compound 140] (H-[NMeI]VLSLD[dV]PIKLK([γGlu-C18 diacid])KILLEQEKQKKQREQAETN[Dap]QILAQV-NH2) the EC50 (human CRF2a receptor) was 0.17 nM, the “Emax (% I)” value (CFR1R receptor) was 14 % I and the EC50 (CFR1R receptor) was over 250 nM.
For `CC[C@H](C)[C@H](NC(C)=O)C(=O)N[C@H](C(=O)N[C@@H](CC(C)C)C(=O)N[C@@H](CO)C(=O)N[C@@H](CC(C)C)C(=O)N[C@@H](CC(=O)O)C(=O)N[C@@H](C(=O)N1CCC[C@H]1C(=O)N[C@H](C(=O)N[C@@H](CCCCN)C(=O)N[C@@H](CC(C)C)C(=O)N[C@@H](CCCCNC(=O)CC[C@H](NC(=O)CCCCCCCCCCC(=O)O)C(=O)O)C(=O)N[C@@H](CCCCN)C(=O)N[C@H](C(=O)N[C@@H](CC(C)C)C(=O)N[C@@H](CC(C)C)C(=O)N[C@@H](CCC(=O)O)C(=O)N[C@@H](CCC(N)=O)C(=O)N[C@@H](CCC(=O)O)C(=O)N[C@@H](CCCCN)C(=O)N[C@@H](CCC(N)=O)C(=O)N[C@@H](CCCCN)C(=O)NC(C)(C)C(=O)N[C@@H](CCC(N)=O)C(=O)N[C@@H](CCCNC(=N)N)C(=O)N[C@@H](CCC(=O)O)C(=O)N[C@@H](CCC(N)=O)C(=O)N[C@@H](C)C(=O)N[C@@H](CCC(=O)O)C(=O)N[C@H](C(=O)N[C@@H](CC(N)=O)C(=O)NC1(C(=O)N[C@@H](CCC(N)=O)C(=O)N[C@H](C(=O)N[C@@H](CC(C)C)C(=O)N[C@@H](C)C(=O)N[C@@H](CCC(N)=O)C(=O)N[C@H](C(N)=O)C(C)C)[C@@H](C)CC)CCNCC1)[C@@H](C)O)[C@@H](C)CC)[C@@H](C)CC)C(C)C)C(C)C` [compound 184] (Ac-IVLSLD[dV]PIKLK([γGlu-C12 diacid])KILLEQEKQK[Aib]QREQAETN[Api]QILAQV-NH2), the EC50 (human CRF2a receptor) was 4.25 nM, the “Emax (% I)” value (CFR1R receptor) was 3 % I and the EC50 (CFR1R receptor) was over 250 nM.
In the case of `CC[C@H](C)[C@H](NC)C(=O)N[C@H](C(=O)N[C@@H](CC(C)C)C(=O)N[C@@H](CO)C(=O)N[C@@H](CC(C)C)C(=O)N[C@@H](CC(=O)O)C(=O)N[C@@H](C(=O)N1CCC[C@H]1C(=O)N[C@H](C(=O)N[C@@H](CCCCN)C(=O)N[C@@H](CC(C)C)C(=O)N[C@@H](CCCCNC(=O)CC[C@H](NC(=O)CCCCCCCCCCCCCCCCC(=O)O)C(=O)O)C(=O)N[C@@H](CCCCN)C(=O)N[C@H](C(=O)N[C@@H](CC(C)C)C(=O)N[C@@H](CC(C)C)C(=O)N[C@@H](CCC(=O)O)C(=O)N[C@@H](CCC(N)=O)C(=O)N[C@@H](CCC(=O)O)C(=O)N[C@@H](CCCCN)C(=O)N[C@@H](CCC(N)=O)C(=O)N[C@@H](CCCCN)C(=O)N[C@@H](CCCCN)C(=O)N[C@@H](CCC(N)=O)C(=O)N[C@@H](CCCNC(=N)N)C(=O)N[C@@H](CCC(=O)O)C(=O)N[C@@H](CCC(N)=O)C(=O)N[C@@H](C)C(=O)N[C@@H](CCC(=O)O)C(=O)N[C@H](C(=O)N[C@@H](CC(N)=O)C(=O)NC1(C(=O)N[C@@H](CCC(N)=O)C(=O)N[C@H](C(=O)N[C@@H](CC(C)C)C(=O)N[C@@H](C)C(=O)N[C@@H](CCC(N)=O)C(=O)N[C@H](C(N)=O)C(C)C)[C@@H](C)CC)CCNCC1)[C@@H](C)O)[C@@H](C)CC)[C@@H](C)CC)C(C)C)C(C)C` [compound 141] (H-[NMeI]VLSLD[dV]PIKLK([γGlu-C18 diacid])KILLEQEKQKKQREQAETN[Api]QILAQV-NH2), the EC50 (human CRF2a receptor) is reported as 0.16 nM, the “Emax (% I)” value (CFR1R receptor) is reported as 32 % I and the EC50 (CFR1R receptor) is reported as over 250 nM.
In the case of `CCC(=O)N[C@H](C(=O)N[C@@H](CC(C)C)C(=O)N[C@@H](CO)C(=O)N[C@@H](CC(C)C)C(=O)N[C@@H](CC(=O)O)C(=O)N[C@@H](C(=O)N1CCC[C@H]1C(=O)N[C@H](C(=O)N[C@@H](CCCCN)C(=O)N[C@@H](CC(C)C)C(=O)N[C@@H](CCCCNC(=O)CC[C@H](NC(=O)CCCCCCCCCCCCCCC(=O)O)C(=O)O)C(=O)N[C@@H](CCC(N)=O)C(=O)N[C@H](C(=O)N[C@@H](CC(C)C)C(=O)N[C@@H](CC(C)C)C(=O)N[C@@H](CCCCN)C(=O)N[C@@H](CCC(N)=O)C(=O)N[C@@H](CCC(=O)O)C(=O)N[C@@H](CCCNC(=N)N)C(=O)N[C@@H](CCC(N)=O)C(=O)N[C@@H](CCCCN)C(=O)N[C@@H](CCCCN)C(=O)N[C@@H](CCC(N)=O)C(=O)N[C@@H](CCCNC(=N)N)C(=O)N[C@@H](CCC(=O)O)C(=O)N[C@@H](CCC(N)=O)C(=O)N[C@@H](C)C(=O)N[C@@H](CCC(=O)O)C(=O)N[C@@H](CCCCN)C(=O)N[C@@H](CC(N)=O)C(=O)N[C@@H](CCCCN)C(=O)N[C@@H](CCC(N)=O)C(=O)N[C@H](C(=O)N[C@@H](CC(C)C)C(=O)N[C@@H](CCC(=O)O)C(=O)N[C@@H](CCC(N)=O)C(=O)N[C@H](C(N)=O)C(C)C)[C@@H](C)CC)[C@@H](C)CC)[C@@H](C)CC)C(C)C)C(C)C` [compound 6] (Propionyl-VLSLD[dV]PIKLK([γGlu-C16 diacid])QILLKQERQKKQREQAEKNKQILEQV-NH2), the EC50 (human CRF2a receptor) is reported as 0.09 nM and the “Emax (% I)” value (CFR1R receptor) is reported as 56 % I.
With `CC[C@H](C)[C@H](NC(=O)[C@H](CCC(N)=O)NC(=O)C(C)(C)NC(=O)[C@H](CC(N)=O)NC(=O)[C@@H](NC(=O)[C@H](CCC(=O)O)NC(=O)[C@H](C)NC(=O)[C@H](CCC(N)=O)NC(=O)[C@H](CCC(=O)O)NC(=O)[C@H](CCCNC(=N)N)NC(=O)[C@H](CCC(N)=O)NC(=O)[C@H](CCCCN)NC(=O)[C@H](CCCCN)NC(=O)[C@H](CCC(N)=O)NC(=O)[C@H](CCCCN)NC(=O)[C@H](CCC(=O)O)NC(=O)[C@H](CCC(N)=O)NC(=O)[C@H](CCC(=O)O)NC(=O)[C@H](CC(C)C)NC(=O)[C@H](CC(C)C)NC(=O)[C@@H](NC(=O)[C@H](CCCCN)NC(=O)[C@H](CCCCNC(=O)COCCOCCNC(=O)COCCOCCNC(=O)CC[C@H](NC(=O)CCCCCCCCCCCCCCCCC(=O)O)C(=O)O)NC(=O)[C@H](CC(C)C)NC(=O)[C@H](CCCCN)NC(=O)[C@@H](NC(=O)[C@@H]1CCCN1C(=O)[C@H](NC(=O)[C@H](CC(=O)O)NC(=O)[C@H](CC(C)C)NC(=O)[C@H](CO)NC(=O)[C@H](CC(C)C)NC(=O)[C@@H](NC(C)=O)C(C)C)C(C)C)[C@@H](C)CC)[C@@H](C)CC)[C@@H](C)O)C(=O)N[C@@H](CC(C)C)C(=O)N[C@@H](C)C(=O)N[C@@H](CCC(N)=O)C(=O)N[C@H](C(N)=O)C(C)C` [compound 99] (Ac-VLSLD[dV]PIKLK([AEEA-AEEA-γGlu-C18 diacid])KILLEQEKQKKQREQAETN[Aib]QILAQV-NH2) the EC50 (human CRF2a receptor) was 6.07 nM, the “Emax (% I)” value (CFR1R receptor) was 0 % I and the EC50 (CFR1R receptor) was over 250 nM.
